# Source: ChEMBL document CHEMBL5053520, “Searching for an ideal SERM: Mining tamoxifen structure-activity relationships” (Bioorg Med Chem Lett, 2021)
# Target: T1, Estrogen receptor (Homo sapiens, UniProt P03372)
# T1 sequence (P03372 whole entry): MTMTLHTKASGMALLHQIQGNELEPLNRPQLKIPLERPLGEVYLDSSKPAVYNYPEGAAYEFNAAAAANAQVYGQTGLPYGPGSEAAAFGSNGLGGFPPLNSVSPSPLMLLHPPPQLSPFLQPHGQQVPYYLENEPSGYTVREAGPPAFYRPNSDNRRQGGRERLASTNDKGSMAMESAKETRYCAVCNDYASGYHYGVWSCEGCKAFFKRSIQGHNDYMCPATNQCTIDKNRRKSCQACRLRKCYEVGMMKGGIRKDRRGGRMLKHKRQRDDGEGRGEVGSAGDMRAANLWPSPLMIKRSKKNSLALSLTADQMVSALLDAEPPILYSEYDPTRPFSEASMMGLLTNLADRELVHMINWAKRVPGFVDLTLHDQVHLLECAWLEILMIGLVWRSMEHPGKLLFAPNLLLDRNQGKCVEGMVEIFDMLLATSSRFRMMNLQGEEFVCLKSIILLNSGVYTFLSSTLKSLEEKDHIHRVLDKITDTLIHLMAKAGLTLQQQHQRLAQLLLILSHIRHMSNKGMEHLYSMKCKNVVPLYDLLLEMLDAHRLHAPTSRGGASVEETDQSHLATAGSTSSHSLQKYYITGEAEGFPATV
# Assay: Displacement of fluorescent labeled-ligand from ERalpha (unknown origin) by competitive binding assay
row,IC50 [nM],SMILES
1,333,CC/C(=C(\c1ccccc1)c1cccc(OCCCN2CCCCC2)c1)c1ccccc1
2,35.5,CC/C(=C(\c1ccc(O)cc1)c1cccc(OCCN(CC)CC)c1)c1ccccc1
3,348,CC/C(=C(\c1ccccc1)c1cccc(OCCCN(CC)CC)c1)c1ccccc1
4,21,CC/C(=C(\c1ccc(O)cc1)c1cccc(OCCN2CCCCC2)c1)c1ccccc1
5,8.8,CC/C(=C(\c1ccc(O)cc1)c1cccc(OCCCN(C)C)c1)c1ccccc1
6,81,CC/C(=C(\c1ccccc1)c1cccc(OCCN2CCCC2)c1)c1ccccc1
7,10.7,CC/C(=C(\c1ccc(O)cc1)c1cccc(OCCCN2CCCC2)c1)c1ccccc1
8,124,CC/C(=C(\c1ccccc1)c1cccc(OCCCN(C)C)c1)c1ccccc1
9,16.3,CC/C(=C(\c1ccc(O)cc1)c1cccc(OCCN2CCCC2)c1)c1ccccc1
10,24.3,CC/C(=C(\c1ccc(O)cc1)c1cccc(OCCN(C)C)c1)c1ccccc1
11,255,CC/C(=C(\c1ccccc1)c1cccc(OCCN(C)C)c1)c1ccccc1
12,422,CC/C(=C(\c1ccccc1)c1cccc(OCCN2CCCCC2)c1)c1ccccc1
13,15.1,CC/C(=C(\c1ccc(O)cc1)c1cccc(OCCCN(CC)CC)c1)c1ccccc1
14,359,CC/C(=C(\c1ccccc1)c1cccc(OCCCN2CCCC2)c1)c1ccccc1
15,39.1,CC/C(=C(\c1ccc(O)cc1)c1cccc(OCCCN2CCCCC2)c1)c1ccccc1
16,571,CC/C(=C(\c1ccccc1)c1cccc(OCCN(CC)CC)c1)c1ccccc1
